Source: paper PMC3156476 (ACS medicinal chemistry letters, 2011)

Tests used:
hA3AR = molecular target: T1, hA3AR (Homo sapiens, UniProt P0DMS8); conditions: read-out: Affinity Ki, A3; CHO cells expressing hA3AR; ref [6], [7], and [12]; cited from earlier work
T1 sequence (P0DMS8 1-318): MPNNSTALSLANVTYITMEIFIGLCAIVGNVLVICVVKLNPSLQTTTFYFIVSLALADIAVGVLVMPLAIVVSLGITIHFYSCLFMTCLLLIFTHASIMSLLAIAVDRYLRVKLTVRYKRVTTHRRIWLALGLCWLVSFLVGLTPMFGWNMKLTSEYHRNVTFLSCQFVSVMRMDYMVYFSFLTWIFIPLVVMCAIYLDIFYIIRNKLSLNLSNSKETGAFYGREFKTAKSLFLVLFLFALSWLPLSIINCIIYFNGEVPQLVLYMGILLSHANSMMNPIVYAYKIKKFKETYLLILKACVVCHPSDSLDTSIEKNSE

hA1AR [1] = molecular target: T2, hA1AR (Homo sapiens, UniProt P30542); conditions: read-out: Affinity Ki, A1; CHO cells expressing hA1AR; ref [6], [7], and [12]; cited from earlier work
T2 sequence (P30542 1-326): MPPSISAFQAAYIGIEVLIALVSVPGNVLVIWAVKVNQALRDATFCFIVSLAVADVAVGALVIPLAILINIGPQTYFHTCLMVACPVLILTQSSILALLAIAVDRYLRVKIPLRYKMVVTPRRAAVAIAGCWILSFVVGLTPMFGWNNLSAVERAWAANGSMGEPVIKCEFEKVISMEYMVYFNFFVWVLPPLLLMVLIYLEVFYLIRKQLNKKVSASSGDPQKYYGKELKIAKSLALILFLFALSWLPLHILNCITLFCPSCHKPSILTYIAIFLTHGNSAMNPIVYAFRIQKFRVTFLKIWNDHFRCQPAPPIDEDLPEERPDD

hA1AR [2] = molecular target: T2, hA1AR; assay type: cell-based; conditions: compared to standard full agonist CPA / NECA

| SMILES | Ki (hA3AR) [µM] | Ki (hA1AR [1]) [µM] | Agonist character at A1AR in cyclic AMP assay (hA1AR [2]) |
| --- | --- | --- | --- |
| CNC(=O)[C@@]12C[C@@H]1[C@@H](n1cnc3c(NC4CCCC4)nc(Cl)nc31)[C@H](O)[C@@H]2O [Compound 2, (1′S,2′R,3′S,4′R,5′S)-4-(2-chloro-6-(cyclopentylamino)-9H-purin-9-yl)-2,3-dihydroxy-N-methylbicyclo[3.1.0]hexane-1-carboxamide] | 0.0131 ± 0.0051 | 0.0183 ± 0.0063 | – |
| O[C@@H]1[C@H](O)[C@@H]2C[C@@H]2[C@H]1n1cnc2c(NC(C3CC3)C3CC3)nc(Cl)nc21 [Compound 21] | – | – | full agonism |
| CNC(=O)[C@@]12C[C@@H]1[C@@H](n1cnc3c(NCc4cccc(Cl)c4)nc(Cl)nc31)[C@H](O)[C@@H]2O [Compound 1, (1′S,2′R,3′S,4′R,5′S)-4′-{2-chloro-6-[(3-chlorophenylmethyl)amino]purin-9-yl}-1-(methylaminocarbonyl)bicyclo[3.1.0]hexane-2,3-diol] | – | 0.26 ± 0.06 | – |
| CCNC(=O)[C@H]1O[C@@H](n2cnc3c(N)ncnc32)[C@H](O)[C@@H]1O [NECA, 5′-N-ethylcarboxamidoadenosine] | – | – | full agonist |
| O[C@@H]1[C@H](O)[C@H]2C[C@@H]2[C@H]1n1cnc2c(NCc3cccc(I)c3)nc(Cl)nc21 [Compound 5, (1′S,2′R,3′S,4′R,5′S)-4′-[2-chloro-6-(3-iodobenzylamino)-purine]-2′,3′-O-dihydroxybicyclo-[3.1.0]hexane] | 0.00144 ± 0.0006 | – | – |
